Laboratory results published in patent publication US8975234B2, “Anti-bacterial infection, inflammation, and leukemia composition and use thereof” (priority 2011, dated 2015).

Columns and labels:
[1] = tested on: LPS-induced PGE2 in RAW264.7 cells; experiment: Prostaglandin E2 (PGE2) assay; assay type: cell-based, mouse; settings: 25 or 50 μM added 30 minutes before LPS
Experimental: One milliliter (1 mL) of murine macrophage cell line RAW264.7 (4×10^5 cells/mL) was seeded on a 12-well plate overnight. After overnight incubation, cells were serum starved in DMEM medium containing 2% Fetal Bovine Serum (FBS) for 3 hours. Then, Tellimagrandin II was added so that final concentrations of 10, 25 and 50 μM were obtained. Thus, after a 30-min incubation, murine macrophage cells were treated with LPS for 16 h and the cell culture supernatant was collected. Cell-free supernatants were diluted and PGE 2 in culture supernatants were detected by using a PGE2 assay kit (R&D system). The purpose of the study was to evaluate the LPS-induced PGE2 expression by co-treating with Tellimagrandin II.

[2] = tested on: penicillin-binding protein 2a (PBP2a); experiment: Western blotting analysis of PBP2a expression; assay type: cell-based, Staphylococcus aureus; settings: 40 μg/mL alone
Experimental: Protein samples (15 μg) were mixed with 5× Sample buffer and boiled in 1× Sample buffer for 5 min and then cooled quickly that proteins be denatured to their constituent polypeptide chains. Equal amounts of protein (15 μg) were separated on 10% SDS-PAGE at 17 mA for 2 hours, and transferred to PVDF membrane using wet transfer procedure. The PVDF membrane was blocked for half hour at room temperature in t-BST buffer containing 5% (w/v) non-fat dry milk to prevent nonspecific binding then probed with primary antibodies (Rabbit-anti-penicillin binding protein, dilution 1:5000) in 5% non-fat dry milk for 16˜18 hours at 4° C. Anti-Groel was used as internal controls (dilution 1:80,000; purchased from Sigma). After washing with t-BST three times for 5 minutes each, the membrane was incubated for half hour at room temperature with horseradish peroxidase (HRP)-conjugated secondary antibodies in 5% (w/v) non-fat dry milk. The membrane was washed three times for 5 minutes each, followed by using an enhanced chemiluminescence system and exposed to film.

[3] = tested on: mouse macrophage cell line RAW264.7; experiment: Cell viability assay (alamarBlue); assay type: cell-based; settings: 50 μg/mL or lower doses, 24 hours
Experimental: AlamarBlue reagent was used to assess cell viability. RAW264.7 cells (2×10^4 in 200 μL of medium) were seeded on the 96-well plate. After overnight incubation, cells were serum starved in DMEM medium containing 2% Fetal Bovine Serum (FBS) for 3 hours. There were several groups: cells without DMSO or Tellimagrandin II treatment (controls); cell treated with DMSO (control); cells treated with Tellimagrandin II with different concentrations (10, 25, 50, 75 and 100 μM, diluted in DMSO) (test groups). Each group was determined in duplicate.
After 24 hours, the cell medium was removed and discarded, and the cells were resuspended with 180 μL of fresh culture medium. Each cell suspension was added with 20 μL alamarBlue. The plate was then placed in incubator for another 4 hours. After incubation, the absorbance of the medium was measured at 570 and 600 nm, and cell viability was analyzed by using the following formula:
[formula] • O1: molar extinction coefficient (E) of oxidized alamarBlue at 570 nm • O2: molar extinction coefficient (E) of oxidized alamarBlue at 600 nm • A1: absorbance of test wells at 570 nm • A2: absorbance of test wells at 600 nm • P1: absorbance of positive growth control well at 570 nm • P2: absorbance of positive growth control well at 600 nm

K-562 cells [4] = experiment: ROS test (DCF-DA); assay type: cell-based, human; settings: 40 μM; 2 hours
Experimental: A radical specific fluorescent dye, 2′,7′-dichlorofluorescein (DCF-DA) was used to detect H2O2/NO-based radicals or O2— in cells respectively.
A total of 3 mL cell solution at the concentration of 1×10^6 K-562 cells per mL was cultured with 6 cm cell culture plates in an incubator supplied with 5% CO2 at 37° C. for 30 minutes so that cells could adapt to the environment. Tellimagrandin II solutions of different concentrations were added by order so that the final concentrations are 0, 30, 40 and 50 μM respectively. The solution was placed in incubator with 5% CO2 at 37° C. for 2 hours before being centrifuged at 3,500 rpm at 4° C. for 5 minutes and then being rinsed by PBS once. 2′,7′-dichlorofluorescein (DCF-DA) was added before the solution was put into dark incubator for 45 minutes and then rinsed by PBS once again. Finally, 1 mL PBS was used to resuspend the cells before BD FACScan was used to detect the fluorescent signal.

K-562 cells [5] = experiment: Cell cycle analyses by flow cytometry; assay type: cell-based, human; settings: 0-50 μM
Experimental: K-562 cells were plated in 15 cm dish at a density of 5×10^5 cells/mL (15 mL) and incubated at 37° C. with 5% CO2 for 16˜18 hours. Cells were collected and centrifuged at 700 rpm for 3 minutes at room temperature, and resuspended in culture medium containing 0.04% fetal bovine serum and 8 mM L-glutamine. Then, cells were incubated at 37° C. with 5% CO2 for 16˜18 hours.
Collected above cells and plated in 3 cm dishes at an initial density of 5×10^5 cells/mL (3 mL). Cells were treated with Tellimagrandin II to final concentrations of 0, 10, 20, 30, 40 and 50 μM, and then incubated at 37° C. with 5% CO2 for 12 and 24 hours.
Cells were centrifuged at a speed of 700 rpm for 5 min at 4° C. and washed once with PBS. Cells were fixed by drop-wise addition of 70% ethanol into the cell suspension. After 16˜18 hours, the ethanol-suspended cells were centrifuged at a speed of […] for 5 minutes at 4° C. and the ethanol decanted thoroughly. Cells were resuspended in PBS containing RNase A (10 μg/mL) and 1% Triton X-100 and incubated at 37° C. in a 5% CO2 incubator for 30 minutes to 1 hour. For propidium iodide (PI) staining, cells were centrifuged at 3,500 rpm for 5 minutes at room temperature and resuspended in 600 μL PBS. 25 μL of PI (20 μg/mL) solution was added to the mixture and incubated at room temperature in the dark for 1 hour. […]

bacteria = experiment: Transmission electron microscopy of treated bacteria; assay type: cell-based; settings: 40 μg/mL; cultured for 10 minutes; compared with control group
Experimental: Before observed by TEM, the bacteria were cultured overnight on plate, collected and suspended in either 10 mL MHB or 10 mL MHB containing 40 μg/mL Tellimagrandin II. The bacterial solution were diluted to an optical density at 600 nm (OD600) of 0.1, and cultured for 10 minutes or 24 hours. Then, the cells were centrifuged at 10,000 rpm/min and suspended in the fixing fluid, the fixed time can not exceed 24 hours. The sample for TEM was sent to departments of Laboratory Medicine and Clinical Research, Kaohsiung Medical University Hospital (Kaohsiung, Taiwan, ROC).

O=C(OC1O[C@@H]2COC(=O)c3cc(O)c(O)c(O)c3-c3c(cc(O)c(O)c3O)C(=O)O[C@H]2[C@H](OC(=O)c2cc(O)c(O)c(O)c2)[C@H]1OC(=O)c1cc(O)c(O)c(O)c1)c1cc(O)c(O)c(O)c1 (stereo partly drawn) [Tellimagrandin II]
expression of PGE2 [1]: significantly reduced the expression of PGE2 | expression of penicillin-binding protein 2a (PBP2a) [2]: inhibit the expression | Cell viability [3]: not affected significant | ROS in K-562 cells (K-562 cells [4]): observed to increase | percentage of the sub-G1 and G2/M-phase cells (K-562 cells [5]): increased in Tellimagrandin II treatments dose-dependently | phenotype of bacteria in electron microscopy (bacteria): unsmooth tooth surfaces
